SMILES strings stand for the structures.

Results on one molecule are retold here after patent US20080167272A1, “Thalidomide metabolites and methods of use” (Auckland Uniservices Limited, priority 2005, published 2008).

The subject of one data set is TNF. Put plainly: Modulation of TNF production in Colon 38 tumour-bearing mice (serum and tumour, ELISA). Type of data set: in vivo. The note with it: 3 h; for effect on DMXAA-induced tumour TNF level: FIG. 3B. On the procedure: Mice with Colon 38 tumours, approximately 5-7 mm in diameter, were divided into groups of 5. One group was untreated. Other groups were treated with DMXAA (25 mg/kg) alone; DMXAA (25 mg/kg)+thalidomide (100 mg/kg), DMXAA (25 mg/kg)+PG (100 mg/kg), DMXAA (25 mg/kg)+PiG (100 mg/kg), DMXAA (25 mg/kg)+CG (100 mg/kg), DMXAA (25 mg/kg)+thalidomide (20 mg/kg), DMXAA (25 mg/kg)+CG (20 mg/kg), and thalidomide, PG, PiG or CG only at 100 and 200 mg/kg. Three hours after treatment, mice were anaesthetized with halothane (NZ Pharmacology Ltd., Christchurch, New Zealand), and blood was collected from the ocular sinus and tumours were excised. Blood was coagulated overnight at 4° C., and then centrifuged for 30 min at 2,000×g and 4° C., and the serum was removed and stored at −80° C. until use. Tumour tissues were weighed and homogenized in 1.5 ml α-minimal essential medium (Gibco, Grand Island, N.Y., USA). The homogenates were centrifuged (2,000×g, 30 min, 4° C.) and supernatant was removed and re-centrifuged (14,000×g, 30 min, 4° C.). The final supernatants were removed and kept at −80° C. until use. TNF levels in serum and supernatants derived from tumour homogenates were assayed for TNF as described in section 4 (below).
TNF was assayed using a commercially available ELISA kit (OpEIA human or murine TNF kit, PharMingen, San Diego, Calif., USA), according to the manufacturer's instructions. Briefly, samples (100 μl/well) in duplicate together with a serial dilution of TNF (31.25-2000 pg/ml) for the standard curve, were added to flat-bottom 96-well plates pre-coated with immobilised monoclonal anti-TNF antibody and incubated at room temperature for 2 h. The wells were then washed, biotinylated polyclonal antibody to TNF was added, followed by peroxidase-labelled streptavidin, and incubated at room temperature for 1 h. The wells were washed again, and the substrate, tetramethylbenzidine and hydrogen peroxide was added and after 10 min the reaction was stopped with 2 N sulphuric acid. The absorbance at 450 nm was determined using a microtitre plate reader.
(An ELISA detects its analyte on a solid surface through an enzyme-linked reagent.)

Data set [1] relates to ECV304 cells. The data set can be described thus: Inhibition of tube formation of ECV304 cells in Matrigel. Type of data set: cell-based, human. The procedure:
Each well in a 24-well plate was coated with 300 μl of Matrigel (Becton Dickinson, San Jose, Calif., USA) which was allowed to solidified at 37° C. for 1 h. […] After 15-18 h of incubation at 37° C. at 5% CO2, the culture supernatant was aspirated. The cells were fixed and stained using Diff-Quick staining kit (Dade AG, Dudingen, Switzerland) according to the manufacturer's instructions. After removal of the staining solution the stained cells in each well were photographed along with a measuring ruler placed at the bottom edge of the photographing field (Olympus Camedia C-5050 professional digital camera, Olympus Optical, Tokyo, Japan). The total length of the tubes formed in the photographs was measured and divided by the area of the field (mm/mm^2).

Data set [2] has as its system ECV304 cells. Put plainly: MTT cytotoxicity assay. The note with it: 18 h, 2-250/g/ml, vs untreated or DMSO-treated cultures. Type of data set: cell-based, human. The procedure:
The 3-(4,5-dimethylthiazol-2-yl)-2,5-diphenyl tetrazolium bromide (MTT) assay, which measures mitochondrial metabolic activity, was used to determine cell viability (Mosmann, 1983). Cells (4×10^3/well) were cultured with various concentrations of thalidomide, CG, PG and PiG in a final volume of 100 μl M199 medium (Gibco, Grand Island, N.Y., USA) supplemented with 10% foetal bovine serum ([…] streptomycin sulphate and 100 units/ml penicillin-G (Sigma, St Louis, Calif., USA) in flat-bottomed 96-well plates at 37° C. at 5% CO2 for 18 h. At the end of the incubation period, 10 μl of MTT (Sigma, St. Louis, Mo., 5 mg/ml in PBS) was added to each well, and the cells were further incubated for 2 h. The supernatants were then removed and the formazan crystals in the cells were dissolved by the addition of 100 μl of DMSO per well, and the absorbance at 590 nm was read using a plate reader. Each concentration of drug was tested in triplicate wells, and the mean ±standard error of the mean (SEM) was calculated.
(Tetrazolium assays rely on reduction of a dye to a coloured formazan, in cell work by metabolically active cells.)

The test system of the next data set is Colon 38 tumours. Put plainly: Colon 38 tumour growth in mice, combination with cyclophosphamide. Type of data set: in vivo. The note with it: CG 100 mg/kg plus cyclophosphamide 220 mg/kg; FIG. 9. The procedure:
Mice (C57B1/6 bred at the Animal Resources Unit, University of Auckland, New Zealand) were implanted with Colon 38 tumours, obtained originally from the Mason Research Institute (Auckland, New Zewaland) by transferring 1 mm^3 pieces of the tumour into a subcutaneous opening in the left flank of anaesthetized mice. The mice with tumours were used for growth delay experiments when tumours had reached approximately 3-5 mm in diameter. […] Tumours were measured 2-3 times weekly after treatment and tumour volumes were calculated as 0.52×a^2×b, where a and b are the minor and major axes of the tumour. The arithmetic means and standard errors were calculated for each point, counting cured animals as having zero tumour volume, and expressed as fractions of the pre-treatment volume. Growth delay was determined as the difference in the number of days required for the tumour to reach four times the pre-treatment volume. […]

In the case of `O=C1CCC(NC(=O)c2ccccc2C(=O)O)C(=O)N1` (centres unmarked) [CG, 2-{[(2,6-Dioxo-3-piperidinyl)amino]carbonyl}benzoic acid], the “effect on DMXAA-induced tumour TNF level” value in the data set on TNF (20 mg/kg co-administered with DMXAA 25 mg/kg) and in the data set with TNF (100 mg/kg co-administered with DMXAA 25 mg/kg) was “significantly increased” throughout. The “effect on DMXAA-induced serum TNF level” value in the data set with TNF (100 mg/kg co-administered with DMXAA 25 mg/kg, FIG. 3A) was “decreased”. Moreover, in the data set on ECV304 cells [1] (250 μg/ml, FIGS. 6 & 7), the “inhibition of tube formation” value is recorded as “Near complete inhibition”. Moreover, the inhibition (in general, the drop in the measured response relative to a control, in per cent) at 2 µg/mL in the data set with ECV304 cells [1] (Homo sapiens, ECV-304, lowest concentration tested, 2 μg/ml, FIG. 7) lay in the range of 38 to 41%. For the same molecule, in the data set with ECV304 cells [1] (human cell system, FIGS. 6 & 7), the “angiogenesis inhibition in vitro compared with thalidomide” value is “as active as thalidomide”. Also, the “toxicity (cell viability, MTT)” value in the data set with ECV304 cells [2] was “No toxicity was observed”. The “tumour size at day 15 after treatment, combination vs monotherapies” value in the data set with Colon 38 tumours was “significantly smaller than those treated with each of the monotherapies”.
